Source: US12251387B2, “Substituted quinoxalines and benzo[c][1,2,5]oxadiazoles as DNA-PK inhibitors” (Vertex Pharmaceuticals Incorporated, priority 2013, dated 2025)

Molecular target: DNA-PK (Homo sapiens, UniProt P78527)
Assay: DNA-PK Inhibition Assay (standard radiometric kinase assay, 33P-ATP, peptide substrate)
Type: biochemical
Conditions: not given
Description: Compounds were screened for their ability to inhibit DNA-PK kinase using a standard radiometric assay. Briefly, in this kinase assay the transfer of the terminal ^33P-phosphate in ^33P-ATP to a peptide substrate is interrogated. The assay was carried out in 384-well plates to a final volume of 50 μL per well containing approximately 6 nM DNA-PK, 50 mM HEPES (pH 7.5), 10 mM MgCl2, 25 mM NaCl, 0.01% BSA, 1 mM DTT, 10 μg/mL sheared double-stranded DNA (obtained from Sigma), 0.8 mg/mL DNA-PK peptide (Glu-Pro-Pro-Leu-Ser-Gln-Glu-Ala-Phe-Ala-Asp-Leu-Trp-Lys-Lys-Lys, obtained from American Peptide), and 100 μM ATP. Accordingly, compounds of the invention were dissolved in DMSO to make 10 mM initial stock solutions. Serial dilutions in DMSO were then made to obtain the final solutions for the assay. A 0.75 μL aliquot of DMSO or inhibitor in DMSO was added to each well, followed by the addition of ATP substrate solution containing ^33P-ATP (obtained from Perkin Elmer). The reaction was started by the addition of DNA-PK, peptide and ds-DNA. After 45 min, the reaction was quenched with 25 μL of 5% phosphoric acid. The reaction mixture was transferred to MultiScreen HTS 384-well PH plates (obtained from Millipore), allowed to bind for one hour, and washed three times with 1% phosphoric acid. Following the addition of 50 μL of Ultima Gold™ high efficiency scintillant (obtained from Perkin Elmer), the samples were counted in a Packard TopCount NXT Microplate Scintillation and Luminescence Counter (Packard BioScience). The Ki values were calculated using Microsoft Excel Solver macros to fit the data to the kinetic model for competitive tight-binding inhibition.

Row | SMILES | Ki [nM]
1 | ClCCN1CCC(c2cnc(N[C@H]3CC[C@@H](Oc4cc(N5CCOCC5)cc5nccnc45)CC3)nc2)CC1 [Compound 522] | < 100

Same assay, conditions: radiometric assay, approximately 6 nM DNA-PK, 100 μM ATP, 45 min; fit to competitive tight-binding inhibition; read-out: Ki for the inhibition of DNA-PK

Row | SMILES | Ki [nM]
2 | COCCOc1cnc(N[C@H]2CC[C@@H](Oc3cc(N4CCOCC4)cc4nccnc34)CC2)nc1 [Compound 612] | < 100
3 | CN(C)c1cc(N[C@H]2CC[C@@H](Oc3cc(N4CCOCC4)cc4nccnc34)CC2)ncn1 [Compound 603] | < 100
4 | O=C(N[C@H]1CC[C@@H](Oc2cc(N3CCOCC3)cc3nccnc23)CC1)N1CCCC1 [Compound 415] | < 100
5 | COCc1cc(N[C@H]2CC[C@@H](Oc3cc(N4CCOCC4)cc4nccnc34)CC2)nc(C)n1 [Compound 616] | < 100
6 | Cc1ncnc(N[C@H]2CC[C@@H](Oc3cc(N4CCOCC4)cc4nccnc34)CC2)c1F [Compound 477] | < 100
7 | c1nc2c(c(N[C@H]3CC[C@@H](Oc4cc(N5CCOCC5)cc5nccnc45)CC3)n1)COC2 [Compound 475] | < 100
8 | Cc1ccncc1N[C@H]1CC[C@@H](Oc2cc(N3CCOCC3)cc3nccnc23)CC1 [Compound 443] | < 100
9 | FC(F)(F)c1cccc(N[C@H]2CC[C@@H](Oc3cc(N4CCOCC4)cc4nccnc34)CC2)n1 [Compound 587] | < 100
10 | FC(F)(F)c1cc(N[C@H]2CC[C@@H](Oc3cc(N4CCOCC4)cc4nccnc34)CC2)ncn1 [Compound 417] | < 100
11 | CN(C)CCNC(=O)c1cnc(N[C@H]2CC[C@@H](Oc3cc(N4CCOCC4)cc4nccnc34)CC2)nc1 [Compound 328] | < 100
12 | Cc1cnc(N[C@H]2CC[C@@H](Oc3cc(N4CCOCC4)cc4nccnc34)CC2)cn1 [Compound 282] | < 100
13 | CCN(CC)C(=O)N[C@H]1CC[C@@H](Oc2cc(N3CCOCC3)cc3nccnc23)CC1 [Compound 413] | < 100
14 | CN1CCC(c2ccnc(N[C@H]3CC[C@@H](Oc4cc(N5CCOCC5)cc5nccnc45)CC3)n2)CC1 [Compound 549] | < 100
15 | CN1CCN(CCOc2ccc(N[C@H]3CC[C@@H](Oc4cc(N5CCOCC5)cc5nccnc45)CC3)nc2)CC1 [Compound 655] | < 100
16 | c1nc2c(c(N[C@H]3CC[C@@H](Oc4cc(N5CCOCC5)cc5nccnc45)CC3)n1)CCC2 [Compound 487] | < 100
17 | COc1ccc(N[C@H]2CC[C@@H](Oc3cc(N4CCOCC4)cc4nccnc34)CC2)cn1 [Compound 447] | < 100
18 | Cc1ncc(N[C@H]2CC[C@@H](Oc3cc(N4CCOCC4)cc4nccnc34)CC2)cn1 [Compound 450] | < 100
19 | Cc1ncn2ccnc(N[C@H]3CC[C@@H](Oc4cc(N5CCOCC5)cc5nccnc45)CC3)c12 [Compound 313] | < 100
20 | Cc1cnc(C)c(N[C@H]2CC[C@@H](Oc3cc(N4CCOCC4)cc4nccnc34)CC2)n1 [Compound 333] | < 100
21 | Cc1ccc(N[C@H]2CC[C@@H](Oc3cc(N4CCOCC4)cc4nccnc34)CC2)cn1 [Compound 444] | < 100
22 | c1cnc2c(O[C@H]3CC[C@@H](Nc4ccc5c(n4)OCCO5)CC3)cc(N3CCOCC3)cc2n1 [Compound 631] | < 100
23 | c1cnc2c(O[C@H]3CC[C@@H](Nc4ncc(CCN5CCOCC5)cn4)CC3)cc(N3CCOCC3)cc2n1 [Compound 434] | < 100
24 | COc1ncnc(N[C@H]2CC[C@@H](Oc3cc(N4CCOCC4)cc4nccnc34)CC2)c1F [Compound 376] | < 100
25 | OC1(c2ccc(N[C@H]3CC[C@@H](Oc4cc(N5CCOCC5)cc5nccnc45)CC3)cn2)COC1 [Compound 468] | < 100
26 | CNc1ncc(OC)c(N[C@H]2CC[C@@H](Oc3cc(N4CCOCC4)cc4nccnc34)CC2)n1 [Compound 387] | < 100
27 | CN1CCC(c2cnc(N[C@H]3CC[C@@H](Oc4cc(N5CCOCC5)cc5nccnc45)CC3)nc2)C1 (some centres unmarked) [Compound 568] | < 100

Row | SMILES | Ki [nM]
28 | COc1cncnc1N[C@H]1CC[C@@H](Oc2cc(N3CCOCC3)cc3nccnc23)CC1 [Compound 438] | < 100
29 | CNC(=O)c1ccc(N[C@H]2CC[C@@H](Oc3cc(N4CCOCC4)cc4nccnc34)CC2)cn1 [Compound 358] | < 100
30 | CNC(=O)c1ccnc(N[C@H]2CC[C@@H](Oc3cc(N4CC5CC(C4)O5)cc4nccnc34)CC2)n1 [Compound 317] | < 100
31 | COc1cnc(N(C)C)nc1N[C@H]1CC[C@@H](Oc2cc(N3CCOCC3)cc3nccnc23)CC1 [Compound 386] | < 100
32 | Cc1nccc(N[C@H]2CC[C@@H](Oc3cc(C4=CCOCC4)cc4nccnc34)CC2)n1 [Compound 352] | < 100
33 | CCOc1cnc(N[C@H]2CC[C@@H](Oc3cc(N4CCOCC4)cc4nccnc34)CC2)cn1 [Compound 334] | < 100
34 | Fc1cnc(N[C@H]2CC[C@@H](Oc3cc(N4CCOCC4)cc4nccnc34)CC2)c(F)c1 [Compound 594] | < 100
35 | CC(C)(O)CNc1ncnc(N[C@H]2CC[C@@H](Oc3cc(N4CCOCC4)cc4nccnc34)CC2)c1F [Compound 377] | < 100
36 | Oc1ncc(F)c(N[C@H]2CC[C@@H](Oc3cc(N4CCOCC4)cc4nccnc34)CC2)n1 [Compound 395] | < 100
37 | c1cnc(N[C@H]2C[C@@H](COc3cc(N4CCOCC4)cc4nccnc34)C2)nc1 [Compound 305] | < 100
38 | Cc1cc(N[C@H]2CC[C@@H](Oc3cc(N4CCOCC4)cc4nccnc34)CC2)n2cnnc2n1 [Compound 500] | < 100
39 | c1cc(N[C@H]2CC[C@@H](Oc3cc(N4CCOCC4)cc4nccnc34)CC2)nc(CN2CCCCC2)n1 [Compound 496] | < 100
40 | c1cc(OCCN2CCOCC2)nc(N[C@H]2CC[C@@H](Oc3cc(N4CCOCC4)cc4nccnc34)CC2)n1 [Compound 560] | < 100
41 | c1cc(N[C@H]2CC[C@@H](Oc3cc(N4CCOCC4)cc4nccnc34)CC2)n2nccc2c1 [Compound 580] | < 100
42 | CC(=O)N1CCC(NC(=O)N[C@H]2CC[C@@H](Oc3cc(N4CCOCC4)cc4nccnc34)CC2)CC1 [Compound 364] | < 100
43 | c1cc(N[C@H]2CC[C@@H](Oc3cc(N4CCOCC4)cc4nccnc34)CC2)nc(CN2CCOCC2)n1 [Compound 503] | < 100
44 | Cn1nnc(-c2cnc(N[C@H]3CC[C@@H](Oc4cc(N5CCOCC5)cc5nccnc45)CC3)nc2)n1 [Compound 458] | < 100
45 | CN(C)c1nccc(N[C@H]2CC[C@@H](Oc3cc(N4CCOCC4)cc4nccnc34)CC2)n1 [Compound 453] | < 100
46 | OCc1ccnc(N[C@H]2CC[C@@H](Oc3cc(N4CCOCC4)cc4nccnc34)CC2)n1 [Compound 457] | < 100
47 | c1cnc2c(O[C@H]3CC[C@@H](Nc4ccn5nccc5n4)CC3)cc(N3CCOCC3)cc2n1 [Compound 498] | < 100
48 | c1cc(N2CCOCC2)nc(N[C@H]2CC[C@@H](Oc3cc(N4CCOCC4)cc4nccnc34)CC2)n1 [Compound 548] | < 100
49 | c1cnc2c(O[C@H]3CC[C@@H](Nc4ncc(OCCN5CCOCC5)cn4)CC3)cc(N3CCOCC3)cc2n1 [Compound 585] | < 100
50 | COC(=O)c1ccc(N[C@H]2CC[C@@H](Oc3cc(N4CCOCC4)cc4nccnc34)CC2)cc1OC [Compound 394] | < 100
51 | Cc1ncc(N)c(N[C@H]2CC[C@@H](Oc3cc(N4CCOCC4)cc4nccnc34)CC2)n1 [Compound 369] | < 100
52 | c1cnc2c(O[C@H]3CC[C@@H](Nc4ccnc5[nH]ccc45)CC3)cc(N3CCOCC3)cc2n1 [Compound 385] | < 100
53 | Cn1nc(N[C@H]2CC[C@@H](Oc3cc(N4CCOCC4)cc4nccnc34)CC2)c2ccccc21 [Compound 298] | < 100
